Measured values published in patent US20240316053A1, “USE OF FOLATE DERIVATIVE IN PREPARATION OF DRUG FOR TREATING CONTACT LENS DISCOMFORT AND DRY EYE” (LIANYUNGANG JINKANG HEXIN PHARMACEUTICAL CO., LTD., priority 2021, published 2024).

How the values were obtained:
[1] = test system: mice with chronic dry eye; test: Corneal fluorescein staining in mice with chronic dry eye; assay type: in vivo; settings: 10th day after treatment
Text: It can be seen that a suitable animal model of dry eye is very important, and it is impossible to show the true state of dry eye or contact lens discomfort only by destroying the lacrimal gland or modeling with hypertonic saline. The mouse model of dry eye constructed under specific environmental conditions is closest to the real situation. 120 female BALB/c mice aged 8-12 weeks were placed in an isolated and sealed cage with an opening on the top. Air dried through anhydrous CaSO4 was pumped into the cage by an air pump, where the air humidity RH=19.5%±5%, the flow rate was 15 L/min, and the temperature was 21-23° C. The mice in the dry and windy environment were taken out on the 5th, 15th and 30th day respectively. The production of tears was measured by phenol red thread test, and compared with that of the mice raised in standard cages in normal environment. Meanwhile, the cornea of the mice were stained with fluorescein, and the punctate staining was recorded in the cornea.
(§1) The experiment was divided into 3 groups. 20 mice with chronic dry eye in Example 2 were divided into a 5-methylterahydrofolic acid group (group A, n=10), and an arginine group (group B, n=10). 4 normal mice were taken as the control group. Each eye of the mice in group A was dripped with 5 μL of 5-methylterahydrofolic acid eye drop every day, each eye of the mice in group B was dripped with 5 μL of 0.5% arginine eye drop every day, and each eye of the mice in group C was dripped with 5 μL of a phosphate buffer every day. Tears were collected on the 3rd, 5th, 7th and 10th day after treatment, and the secretion of tears was detected. On the 10th day after treatment, the cornea of the mice in each group were stained with fluorescein.
The experiment was divided into 4 groups. […] Tears were collected on the 3rd, 5th, 7th and 10th day after treatment, and the secretion of tears was detected. […]

[2] = test system: symptomatic contact lens wearers; test: Follow-up of degree of discomfort of wearing contact lenses; assay type: in vivo, human; settings: group A (n=4), oral 5 mg calcium salt of 6S-5-methylterahydrofolic acid/tablet every day, contact lenses worn after 3 days
Experimental: A total of 10 adults suffering from contact lens discomfort were included in the study. Among them, 8 felt uncomfortable when wearing contact lenses, and 2 were asymptomatic contact lens wearers. The contact lenses worn by the participants were all silicone hydrogel-based contact lenses. All the participants were in good health. The symptoms and severity of eye discomfort were evaluated by the ocular surface disease index (OSDI), and whether there were symptoms such as inflammation in the eyes was checked by an optometrist.
(§2) The symptomatic contact lens wearers were divided into 2 groups, that is, group A (n=4) and group B (n=4). The asymptomatic contact lens wearers were assigned to group C The participants in each group didn't wear contact lenses for 24 hours, and then the tears were collected. Dietary supplements containing 5 mg calcium salt of 6S-5-methylterahydrofolic acid/tablet were orally taken by the participants in group A every day. After 3 days, the participants in each group began to wear contact lenses, and the tears were collected after 6 hrs. The contents of IL-2, IL-6, IL-17, and TNF-α were detected (ELISA method). The participants in each group were followed up to determine the degree of discomfort of wearing contact lenses.

IL-17 [3] = test: Inflammatory factors on ocular surface of mice with chronic dry eye (ELISA); assay type: in vivo; settings: Example 3, 0.5% eye drop, cornea, conjunctiva and draining lymph node, FIG. 6
Experimental: as §1
After treatment, the animals were euthanized, and the eye tissues such as cornea, lacrimal gland and meibomian gland were taken out and washed in PBS. The cornea, conjunctiva and draining lymph node were collected and stored in cold sterile PBS at −80° C. The samples were homogenized and centrifuged on ice. The levels of […], IL-17 and IL-6 in the supernatant were determined by ELISA kit (Raybiotech).

MMP-2 = test: Semi-quantitative RT-PCR in ipsilateral trigeminal ganglion of mice with chronic dry eye; assay type: in vivo; settings: Example 3, 0.5% eye drop, FIG. 7
Experimental: as §1
(§3) The ipsilateral trigeminal ganglion and trigeminal trunk of the eye of the mice were dissected quickly on ice, immediately frozen with liquid nitrogen, and stored at −80° C. RNA was extracted from ipsilateral trigeminal ganglion and trigeminal trunk by using NucleoSpin RNA purification II kit (NucleoSpin RNAS, Germany), and PCR amplification was carried out with mouse-specific cDNAs for matrix metalloproteinases MMP-9, MMP-2, and TNF-α. For each primer, the reaction was stopped after 24, 28, 32, 36, or 40 cycles, so as to ensure that the PCR products were within the linear range of the amplification curve, and semi-quantitative RT-PCR for the expression of related genes was realized.

TNF-α = test: as above; assay type: in vivo; settings: Example 3, 0.5% eye drop, FIG. 7
Experimental: as §1, §3

MMP-9 = test: as above; assay type: in vivo; settings: Example 3, 0.5% eye drop, FIG. 7
Experimental: as §1, §3

IL-17 [4] = test: IL-17 content in tears of contact lens wearers (ELISA); assay type: in vivo, human; settings: symptomatic wearers, oral 5 mg/tablet daily, tears collected after 6 hrs of lens wear, FIG. 1
Experimental: as §2

Stability in water = assay type: physicochemical
[5] = Example 3, 0.5% eye drop, 5 μL per eye every day, FIG. 5

SMILES | corneal injury (fluorescein staining) [1, 5] | participants saying that the contact lens discomfort almost disappears [2] | participants thinking that the effect is not significant [2] | IL-17 inflammatory factor on ocular surface (IL-17 [3]) | MMP-2 gene expression in trigeminal nerve (MMP-2) | TNF-α gene expression in trigeminal nerve (TNF-α) | MMP-9 gene expression in trigeminal nerve (MMP-9) | level of IL-17 in tears (IL-17 [4]) | corneal injury (fluorescein staining) ([1]; Example 4, eye drops, FIG. 9) | stability in water (Stability in water)
CN1c2c(nc(N)[nH]c2=O)NCC1CNc1ccc(C(=O)N[C@@H](CCC(=O)O)C(=O)O)cc1 (some centres unmarked) [5-methylterahydrofolic acid] | can improve the corneal injury with a significant difference from the baseline state | 3 participants | 1 case | can significantly reduce IL-17 inflammatory factor | can significantly inhibit the MMP-2 gene expression | a certain inhibitory effect on TNF-α | not on MMP-9 significantly | can reduce the level of IL-17 in tears | – | –
N=C(N)NCCC[C@H](N)C(=O)O [arginine, reference compound] | can not significantly improve the ocular surface damage | – | – | – | – | – | – | – | – | –
CN1c2c(nc(N)[nH]c2=O)NC[C@@H]1CNc1ccc(C(=O)N[C@@H](CCC(=O)O)C(=O)O)cc1.N=C(N)NCCC[C@H](N)C(=O)O [arginine 5-methylterahydrofolate, arginine 6S-5-methylterahydrofolate] | – | – | – | – | – | – | – | – | can improve the corneal injury, with a significant difference from the baseline state | very poor
